Assays:
[1] = tested on: CD4+CD25+Foxp3+ regulatory T cells; assay: Increase of regulatory T cells in in vivo GVHD mouse model (Example 10); details: intravenous, four times a week for two weeks, spleen flow cytometry
Procedure: 6-8 week-old C57BL/6 (H-2kb) mouse and BALB/c (H-2kd) mouse which have different MHC class from each other were used. A recipient mouse BALB/c (H-2kd) was irradiated with systemic radiation at 8 Gy. Within 24 hours, bone marrow 5×10^6 cells and spleen 5×10^6 cells isolated from a donor mouse C57BL/6 […] were transplanted into the recipient mouse intravenously to induce graft-versus-host rejection reaction model (GVHD model). Compound A was intravenously injected into the GVHD model four times a week for two weeks. Mice were sacrificed, single-cell isolation was carried out, and the function of immune regulation in the spleen was investigated via flow cytometry. As a result, it was confirmed that in the group in which Compound A was administered CD4^+CD25^+Foxp3^+ regulatory T cells were increased.

[2] = tested on: CD4+ T cells isolated from mouse spleen cells; assay: In vitro differentiation of CD4+ T cells into regulatory T cells (aCD3, aCD28, TGF-beta); format: cell-based
Procedure: Experimentation for investigating the effect of the compound of the present invention on the differentiation of lymphocyte Th cells was carried out. 5×10^5 CD4+ T cells isolated from mouse spleen cells were dispensed into a 24-well plate coated with 1 μg/ml of anti-CD3 (aCD3), and then treated with 1 μg/ml of […] (aCD28) and 5 ng/ml of TGF-beta to induce the differentiation into regulatory T cells for 3 days. Before the differentiation into regulatory T cells, the compound (tetrahydropyran-4-yl)-[2-phenyl-5-(1,1-dioxo-thiomorpholin-4-yl)methyl-1H-indol-7-yl]amine (hereinafter referred to as “Compound A”) (LG Life Sciences Ltd., Daejeon, Korea) of the present invention was treated with the concentration of 40 μM and 80 μM. For flow cytometry, anti-mouse CD4 PerCP, CD25 APC and FoxP3 PE fluorescence-labeled antibodies were added thereto and reacted at 4° C. for 30 minutes. After washing with PBS, the measurement was carried out with a flow cytometer (FACSCalibur™)
In the course that 5×10^5 CD4^+ T cells isolated from mouse spleen cells were dispensed into a 24-well plate coated with 1 μg/ml of anti-CD3 (aCD3), and then treated with 1 μg/ml of […] (aCD28) and 5 ng/ml of TGF-beta to induce the differentiation into regulatory T cells for 3 days, the groups were divided into (1) 40 μM or 80 μM of Compound A single-treated group, (2) 0.1 μM of retinoic acid (RA) single-treated group, (3) 1 μM of retinal treated group, (4) 0.1 μM of RA and 40 μM or 80 μM of Compound A treated group, and (5) 1 μM of retinal and 40 μM or 80 μM of Compound A treated group, and the effect on the differentiation into regulatory T cells of each group was then compared.

[3] = tested on: GVHD mouse model; assay: Allogeneic immune response (GVHD) mouse model: survival, body weight, GVHD clinical score, large intestine histology; format: in vivo
Procedure: 6-8 week-old C57BL/6 (H-2kb) mouse and BALB/c (H-2kd) mouse which have different MHC class from each other were purchased from OrientBio Co., Ltd. After passing the regulation of the management committee of the Department of Laboratory Animal, The Catholic University of Korea, the mice were used under its care. A recipient mouse BALB/c (H-2kd) was irradiated with systemic radiation at 800 cGy. Within 24 hours, bone marrow 5×10^6 cells and spleen 5×10^6 cells isolated from a donor mouse C57BL/6 […] were transplanted into the allogeneic recipient mouse intravenously to induce a graft-versus-host rejection reaction model. The bone marrow-transplanted mouse was observed and evaluation was made of the following: weight, pose, activity, hair condition and skin density with evaluation criteria on the total ten-point scale, two points per each item (Table 1).
4 μm of serial sections were obtained from the paraffin-embedded tissue, treated with xylene three times to remove paraffin, and then hydrated stepwise in 95%, 90% and 70% ethanol. After removing endogenous peroxidase in 0.5% hydrogen peroxide, the specimen was treated with normal goat serum for 30 minutes and then reacted with primary antibody which was diluted with 3% bovine serum albumin (BSA) in PBS according to the manufacturer's instruction for 1 hour. After primary antibody reaction to the expressed proteins directed to genes showing the difference of expression in the above study, the specimen was washed with Tris-buffered saline (TBS) three times, reacted with 5 μg/ml biotinylated anti-mouse/anti-rabbit IgG diluted in 3% BSA for 30 minutes and washed with TBS three times. The specimen was kept in 3 μg/ml horseradish peroxidase streptoavidin for 30 minutes, color development was carried out by the use of DAB and hydrogen peroxide, and counter staining was carried out with Meyer's hematoxylin or 1% methyl green. […]

[4] = tested on: reactive oxygen species (ROS); assay: Measurement of reactive oxygen species (ROS) in spleen cells of GVHD mice; format: in vivo; details: GVHD mouse spleen cells; 7th and 14th day; dose- and time-dependent; vs control group
Procedure: Animals of each group were sacrificed, and their spleens were isolated. After single-cell isolation, the obtained cells were washed with phosphate-buffered saline (PBS) twice. The reaction with 3 μM carboxy-H2DCFDA reagent was carried out at 37° C. for 10 minutes. After washing with PBS, the analysis was carried out with a flow cytometer at 540 nm.
Accordingly, the present inventors observed immune response by oxidative stress via GVHD mouse model.

[5] = tested on: CD4+ T cells isolated from the spleen cells of C57BL/6; assay: Differentiation into regulatory T cells in allogeneic immune cells in vitro; format: cell-based, mouse; details: C57BL/6 CD4+ T cells with irradiated BALBc APCs; 5 days; various concentrations
Procedure: 1×10^6 CD4^+ T cells isolated from the spleen cells of C57BL/6 and BALBc antigen-presenting cells (APCs) irradiated at 20 Gy were added to a 48-well plate and incubated at 37° C. for 5 days. The incubation was carried out under the condition that allogeneic immune response by antigen-presenting cells is induced to the spleen cells, and the treatment with Compound A at various concentrations before incubation was carried out for comparative analysis. The cells were harvested after 5-day incubation, and for flow cytometry anti-mouse CD4 PerCP, CD25 APC and FoxP3 PE fluorescence-labeled antibodies were added thereto and reacted at 4° C. for 30 minutes. After washing with PBS, the measurement was carried out with a flow cytometer (FACSCalibur™).

[6] = tested on: HMGB1; assay: Real-time PCR of HMGB1 expression in spleen cells of GVHD mice; format: in vivo; details: GVHD mouse spleen cells, 7th and 14th day, time-dependent, vs control group
Procedure: Total RNA was extracted from the cells by the use of TRIzol reagent. 1 μg of RNA was reacted with AMV reverse transcriptase and random hexamer at 45° C. for 1 hour to synthesize cDNA. Real-time PCR was carried out by the use of a mixture in which 1 μg of cDNA as a template, primer S, primer AS and distilled water were mixed, and SYBR Green. The PCR was carried out by the use of I-IMGB 1 (5′-GATGGGCAAAGGAGATCCTAAG-3′ and 5′-TCACTTTTTTGTCTCCCCTTTGGG-3′) with the condition of 35 cycles of at 95° C. for 15 seconds, at 60° C. for 10 seconds and at 72° C. for 30 seconds. Fluorescent data were measured by the use of Rad CFX96 Real-Time System (Bio-Rad Laboratories).
It has been well known that the release of HMGB1 has a possibility of the function for regulating inflammation and immunity. Therefore, in this study the animals of the test group in which GVHD mouse model was treated with the compound of the present invention and the control model was sacrificed, RNA was extracted from spleen cells, and then cDNA was synthesized and a comparative study on the expression of HMGB1 was carried out by real-time PCR.

[7] = tested on: CD4+CD25+Foxp3+ regulatory T cells; assay: Flow cytometry of spleen cells of GVHD mice (regulatory T cells, CD4+IL-4, CD4+IFN-γ); format: in vivo; details: GVHD mouse spleen
Procedure: Mice were divided into a GVHD group in which (tetrahydropyran-4-yl)-[2-phenyl-5-(1,1-dioxo-thiomorpholin-4-yl)methyl-1H-indol-7-yl]amine (LG Life Sciences Ltd., Daejeon, Korea, hereinafter referred to as “Compound A”) was treated as a test group and a GVHD group in which Compound A was not treated as a control group. The spleens of each group were isolated and single-cell isolation was then carried out. The expression of CD4+CD25+Foxp3+, which is the phenotype of regulatory T cell, and CD4+IFN-γ cells and CD4+IL-4 cells were analyzed by the use of fluorescent monoclonal antibodies and a flow cytometer.
The present inventors found out that in GVHD mouse model, immune transplant rejection was decreased, the production of ROS and HMGB1, and cellular necrosis in tissues were suppressed by the compound of the present invention, so that they intended to observe the possibility of regulating immune response in immune disease animal model. Accordingly, mice of the test group in which the compound of the present invention was treated and the control group were sacrificed, their spleens were isolated, single-cell isolation was carried out, and the function of immune regulation was searched via flow cytometry. As a result, in the group in which the compound of the present invention was treated CD4+CD25+Foxp3+ immune regulatory cells (regulatory T cells) were increased 6 times or more, as compared with the control group. […] In GVHD model, after irradiation of high-dose radiation the transplanted T cells of the donor are activated and proliferated by antigen-presenting cells of the host to secrete IFN-γ which is known as a representative GVHD causing cytokine. […] Therefore, it can be known that the compound of the present invention can suppress immune response by suppressing the activation of the transplanted T cells.

## O=S1(=O)CCN(Cc2cc(NC3CCOCC3)c3[nH]c(-c4ccccc4)cc3c2)CC1 [Compound A, (tetrahydropyran-4-yl)-[2-phenyl-5-(1,1-dioxo-thiomorpholin-4-yl)methyl-1H-indol-7-yl]amine]
[1]
  CD4+CD25+Foxp3+ regulatory T cells: increased
[2]; CD4+ T cells with aCD3, aCD28, TGF-beta, 40 μM and 80 μM
  differentiation into regulatory T cells: increased in a Compound A concentration-dependent manner
[2]; CD4+ T cells with aCD3, aCD28, TGF-beta, 40 μM and 80 μM, 3 days, vs control without Compound A
  expression of Foxp3+: nearly doubled
[2]; aCD3, aCD28, TGF-beta, Compound A 40 or 80 μM, RA 0.1 μM, retinal 1 μM
  expression of Foxp3+ (alone or in combination): increased to a similar extent to the case of treating retinal or RA
[3]; 0.3 or 1 mg/kg (FIG. 2), compared with non-treated group
  survival rate: considerably increased
[3]; FIGS. 1 and 2
  body weight: significant results
  graft-versus-host reaction (GVHD clinical score): significant results
[4]
  generation ratio of reactive oxygen species in cells: significantly suppressed
[5]
  regulatory T cells: increased according to the concentration of Compound A
[6]
  release (expression) of HMGB1: significantly suppressed
[7]; compared with control group
  increase of CD4+CD25+Foxp3+ immune regulatory cells (regulatory T cells): ≥ 6 times
[7]; vs control group
  CD4+IFN-γ: decreased by more than half
  CD4+IL-4 cells: increased

Source: patent publication US9867832B2, “Pharmaceutical composition for inhibiting immune response through inducing differentiation into regulator T cells and promoting proliferation of regulator T cells” (LG CHEM, LTD., priority 2013, dated 2018)
